Tested on: streptozotocin induced diabetic rats
Assay: Serum insulin levels (chemiluminescence method, human specific kit)
Conditions: 30 days treatment

Question: Which insulin levels does the source give for `COc1ccc(Cl)cc1C(=O)NCCc1ccc(S(=O)(=O)NC(=O)NC2CCCCC2)cc1` [Glibenclamide] here?
Answer: 0.4 μIU/ml
